From publication PMC3544137, “Isolation identification and biochemical characterization of a novel halo-tolerant lipase from the metagenome of the marine sponge Haliclona simulans” (Microbial Cell Factories, 2012) come the findings set out here.

What is called KM is the substrate concentration at which the rate is half of its maximum.

The test deals with T1, Lpc53E1 (uncultured bacterium, UniProt I4AY78).
T1 construct: primer-encoded N-terminus MKSRLNDI
The test is described as follows: p-nitrophenol release at […] nm, Lineweaver-Burk. It counts as biochemical. The conditions noted are these: pH 7, 40 °C; unit printed as mM^-1 (presumably mM); unit of the source corrected.

T1 sequence (I4AY78 1-387 limits assumed): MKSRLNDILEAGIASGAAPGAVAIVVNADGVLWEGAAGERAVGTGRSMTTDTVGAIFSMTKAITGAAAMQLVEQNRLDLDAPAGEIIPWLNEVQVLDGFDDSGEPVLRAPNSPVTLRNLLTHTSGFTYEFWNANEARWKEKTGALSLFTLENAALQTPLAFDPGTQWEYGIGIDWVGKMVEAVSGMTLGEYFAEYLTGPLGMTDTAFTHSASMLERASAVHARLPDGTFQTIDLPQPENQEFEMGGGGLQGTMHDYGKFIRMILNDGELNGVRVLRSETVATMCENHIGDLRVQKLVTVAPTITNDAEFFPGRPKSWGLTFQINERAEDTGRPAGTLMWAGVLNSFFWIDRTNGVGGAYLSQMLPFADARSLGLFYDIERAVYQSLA

In the case of `CCCCCCCCCCCCCCCC(=O)Oc1ccc([N+](=O)[O-])cc1` [pNPP, p-nitrophenyl palmitate], the KM worked out at 1.09 mM.
